Assay results: patent publication US20260226055A1, “PYRAZOLE DERIVATIVES AS PHD INHIBITORS” (Oxford University Innovation Limited, priority 2023, published 2026)
pIC50: −log10 of the molar value.

Tested on: HIF1-α in Hep3B cells
Assay: Immunoblots of Hep3B cells (HIF1-α protein levels)
Assay type: cell-based
Parameters: dose or concentration left out as unconfirmed
Conditions: 3 hours
Description: Cells were grown to 90% confluency.
Hep3B cells were treated with compounds 117, 119, 122 and 123 of the invention (Examples 93, 95, 98 and 99) at 100 µM (A) and 20 µM (B) PHD inhibitors for 3 hours.

SMILES	HIF-1α stabilisation (immunoblot)
Cc1cc2nc(C)c3c(O)c(C(=O)NCc4ccc(-c5ccccc5)cc4)cnc3n2n1 [Compound 122, N-([1,1′-Biphenyl]-4-ylmethyl)-6-hydroxy-2,5-dimethylpyrazolo[1,5-a]pyrido[3,2-e]pyrimidine-7-carboxamide]	stabilise HIF-1α
Cc1cc2nc(C)c3c(O)c(C(=O)NCc4ccc(C(F)(F)F)cc4)cnc3n2n1 [Compound 123, 6-Hydroxy-2,5-Dimethyl-N-(4-(trifluoromethyl)benzyl)pyrazolo[1,5-a]pyrido[3,2-e]pyrimidine-7-carboxamide]	stabilise HIF-1α
O=C(Nc1ccc(-c2ccccc2)cc1)c1cnc2c(cnc3ccnn32)c1O [Compound 119, N-([1,1′-Biphenyl]-4-yl)-6-hydroxypyrazolo[1,5-a]pyrido[3,2-e]pyrimidine-7-carboxamide]	stabilise HIF-1α
O=C(NCc1ccc(-c2ccccc2)cc1)c1cnc2c(cnc3ccnn32)c1O [Compound 117, N-([1,1′-Biphenyl]-4-ylmethyl)-6-hydroxypyrazolo[1,5-a]pyrido[3,2-e]pyrimidine-7-carboxamide]	stabilise HIF-1α

Target: PHD2 (Homo sapiens, UniProt Q9GZT9)
Assay: PHD2 RF-MS hydroxylation assay
Assay type: biochemical
Conditions: not given
Description: In brief, cDNA encoding for the catalytic domain of tPHD2 (181-426 residues) was cloned into the pET28a(+)/pET24a(+) vectors (Novagen), to enable production of tPHD2 (residues 181-426) protein with/without an N-terminal His6-tag. The tPHD2 (residues 181-426) encoding construct was transformed into the Escherichia coli BL21 DE3 cell line; protein production was induced with 0.5 mM […] (3-5 hr at 28° C.). […] The protein was exchanged into 50 mM Tris-HCl buffer (pH 7.5) and concentrated to % 40 mg/ml.
Tris(hydroxymethyl)aminomethane was from Fisher. […] All inhibition assays were carried out in 384-well polypropylene plates (Greiner Bio-One). […] PHD2 protein was prepared at a concentration of 300 nM in assay buffer and 25 μl dispensed across each 384-well assay plate. […] After loading the C4 SPE was washed with 0.1% formic acid in water to remove non-volatile buffer salts and then peptide was eluted from the SPE with 85% acetonitrile, 15% water containing 0.1% formic acid onto the mass spectrometer. Peptide charge states were monitored in positive mode. […] IC50 values were determined from non-linear regression plots using GraphPad prism.
SAR studies for PHD2 inhibition were carried out on the compounds of the invention. Compounds were screened against PHD2 using the RF-MS hydroxylation assay.

Sequence of PHD2 (Q9GZT9 181-426): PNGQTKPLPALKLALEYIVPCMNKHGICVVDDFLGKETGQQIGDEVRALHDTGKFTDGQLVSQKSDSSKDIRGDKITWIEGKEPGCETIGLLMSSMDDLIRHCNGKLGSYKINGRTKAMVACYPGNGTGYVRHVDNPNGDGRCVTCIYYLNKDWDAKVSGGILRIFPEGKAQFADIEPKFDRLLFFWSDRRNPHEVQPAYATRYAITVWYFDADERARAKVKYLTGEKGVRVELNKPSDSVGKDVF

SMILES	pIC50
O=C(NCc1ccc(-c2ccccc2)cc1)c1ccc(-n2cccn2)cc1O [Compound 16, N-([1,1′-biphenyl]-4-ylmethyl)-2-hydroxy-4-(1H-pyrazol-1-yl)benzamide]	< 5.00
O=C(NCC1CCCCC1)c1cnc(-n2cccn2)cc1O [Compound 44, N-(Cyclohexylmethyl)-4-hydroxy-6-(1H-pyrazol-1-yl)nicotinamide]	< 5.00
O=C(Nc1ccc(-c2ccccc2)cc1)c1cnn(-c2cc(O)ccn2)c1 [Compound 108]	< 5.00
COc1cc(-n2cc(C(=O)NCc3ccc(-c4ccccc4)cc3)cn2)ncc1C#N [Compound 93]	< 5.00
O=C(NCc1ccc(-c2ccccc2)cc1)c1cnc(-n2cccn2)nc1 [Compound 20, N-([1,1′-Biphenyl]-4-ylmethyl)-2-(1H-pyrazol-1-yl)pyrimidine-5-carboxamide]	< 5.00
O=C(O)c1ccnc(-n2cc(C(=O)NCc3ccc(-c4ccccc4)cc3)cn2)c1 [Compound 103]	< 5.00
N#Cc1ccc(-n2cc(C(=O)NCc3ccc(-c4ccccc4)cc3)cn2)nc1 [Compound 97]	< 5.00
O=C(NCc1ccc(-c2ccccc2)cc1)c1ccc(-n2cccn2)nc1 [Compound 22, N-([1,1′-Biphenyl]-4-ylmethyl)-6-(1H-pyrazol-1-yl)nicotinamide]	< 5.00

Tested on: not listed separately
Assay: In vivo blood counts in C57BL/6 mice
Conditions: twice daily IP, 8 days
Description: Values are shown pre-treatment, and 4 and 8 days after treatment.
Blood samples were taken either pre-treatment, on the 4th day into treatment or on the 8th day of treatment. Blood samples were analysed using Celltac Alpha MEK-6500K.
Samples were taken either pre-treatment, on the 4th day into treatment or on the 8th day of treatment. Blood samples were analysed using Celltac Alpha MEK-6500K.

SMILES	adverse effects
O=C(O)CNC(=O)C1C(=O)N(C2CCCCC2)C(=O)N(C2CCCCC2)C1=O [Daprodustat]	no adverse effects

Tested on: not given
Assay: not given
Conditions: mouse, in vivo, ip

SMILES	adverse effects
O=C(NCC1CCC(C(F)(F)F)CC1)c1cnc(-n2cccn2)cc1O (centres unmarked) [Compound 68, 4-Hydroxy-6-(1H-pyrazol-1-yl)-N-((4-(trifluoromethyl)cyclohexyl)methyl)nicotinamide]	no adverse effects
